Assay results published in patent US20050203056A1, “Carboxyl-reduced derivatives of hyaluronic acid, preparation thereof, use thereof as a medicinal product and the pharmaceutical compositions containing them” (Aventis Pharma S.A., priority 2003, published 2005).

Experiments:
aggrecanase = assay: Effect on the aggrecanase in synovial fluids or on preparations of recombinant ADAMTS protein (BC-3 ELISA, Agg1mut substrate); format: biochemical
Description: Effect of the carboxyl-reduced derivatives on the aggrecanase in synovial fluids or on preparations of recombinant ADAMTS protein.
The analysis is carried out on 96-well plates.
In each well, a fixed volume of synovial fluid or aggrecanase activity generating a known increase, between 1.0 and 1.4 absorbance units (405 nm), under the conditions of the analysis, is mixed with 3 μl of solution of compound from the respective dilution step. Dulbecco's modified Eagle's medium (DMEM) is added to each well to give a final volume of 300 μl. The plate is then incubated for 1 hour at 37° C. in a carbon dioxide atmosphere.
After the addition of 5 μl of a solution of […] of recombinant substrate Agglmut in DMEM to each well (substrate as described by Bartnik E. et al., EP 785274, 1997), the reagent mixture is incubated for 4 hours at 37° C. under a carbon dioxide atmosphere.
In a first step, the microplate is coated with 100 μl per well of a commercial goat anti-mouse IgG antibody for 1 hour at ambient temperature (5 μg/ml in a phosphate buffered saline solution, pH 7.4 [PBS buffer]). After washing with the PBS buffer containing 0.1% of Tween-20 (washing buffer), the wells are blocked by means of a step consisting of a one hour incubation with 100 μl per well of 5% bovine serum albumin in a PBS buffer containing 0.05% of Tween-20. Following another rinse with the washing buffer, each well is incubated with 100 μl of a solution, diluted to 1:1000, of BC-3 antibody in a PBS buffer containing 0.05% of Tween 20 and 0.5% of bovine serum albumin, at ambient temperature for one hour. This antibody recognizes the typical aggrecanase cleavage fragments (Hughes C. E. et al., Biochem. J. 305 (3), 799-804, 1995).
After another rinse of the analytical plate with the washing buffer, the complete set of mixtures originating from the preceding digestion is transferred to this plate, well by well, and incubated at ambient temperature for one hour. The plate is again washed as above. Next, 100 μl of the second antibody (anti-human IgG antibody labeled with peroxidase, 1:1000 in PBS containing 0.5% of BSA and 0.05% of Tween-20) are added to each well, with subsequent incubation at ambient temperature again for one hour. After a final rinse with the washing buffer, the color development is initiated by adding 100 μl of ABTS substrate solution (2 mg/ml, 2,2′-azinobis(3-ethyl-benzothiazoline)sulfonic acid) in 40 mM of sodium citrate plus 60 mM of disodium hydrogen phosphate, adjusted to a pH of 4.4 by adding acetic acid; 0.25 μl of 35% hydrogen peroxide added per ml immediately before measurement). […] The development is stopped as soon as the maximum signal (405 nm) in the absorbance range of 1.0 to 1.4 is reached.

bovine factor Xa [1] = target: T1, bovine factor Xa (Bos taurus, UniProt P00743); settings: calibrated against Enoxaparin
T1 sequence (P00743 234-492 limits assumed): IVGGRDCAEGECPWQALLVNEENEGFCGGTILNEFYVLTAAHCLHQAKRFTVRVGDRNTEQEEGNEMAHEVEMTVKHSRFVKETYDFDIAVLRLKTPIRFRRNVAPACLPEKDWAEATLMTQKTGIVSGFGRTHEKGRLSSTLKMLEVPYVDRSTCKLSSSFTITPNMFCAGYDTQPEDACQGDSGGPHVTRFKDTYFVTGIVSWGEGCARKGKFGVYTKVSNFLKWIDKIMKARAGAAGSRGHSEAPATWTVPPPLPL
Description: For the calibration, a standard sample of low molecular weight heparin (Enoxaparin) was used as reference.
The serial dilutions of the assay compound are prepared in a 0.046 M Tris buffer, pH 8.4, containing 0.15 M NaCl, 0.007 M EDTA, 0.1% of Tween 80 and 0.12 IU/ml of human antithrombin III. The samples of 50 μl of the respective dilutions are incubated with 50 μl of bovine factor Xa (13.6 U/ml) at 37° C. for 80 seconds. Next, 50 μl of chromogenic substrate, 1.1 mM S-2765, are added. […] The activity of the deblocked factor Xa is indicated by the emission of p-nitroaniline from the substrate.

[2] = target: T2, human neutrophil elastase (Homo sapiens, UniProt P08246)
T2 sequence (P08246 30-267): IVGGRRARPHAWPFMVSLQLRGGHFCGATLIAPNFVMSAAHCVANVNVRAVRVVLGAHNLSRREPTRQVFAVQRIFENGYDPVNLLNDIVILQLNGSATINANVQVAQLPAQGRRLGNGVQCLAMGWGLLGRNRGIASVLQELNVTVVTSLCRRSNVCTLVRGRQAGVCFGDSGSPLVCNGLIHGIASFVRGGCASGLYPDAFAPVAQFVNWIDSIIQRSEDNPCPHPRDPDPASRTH
Description: A commercially available enzyme (for example, human neutrophil elastase, sigma No. E8140) is reconstituted in aliquots of 0.1 mg per vial with 0.276 ml of 50 mM sodium acetate buffer, pH 5.5, containing 200 mM NaCl (stock solution of the enzyme); 11 μl of this stock solution are diluted with 1.1 ml of the HEPES buffer above (enzyme assay solution).
The substrate solution is prepared by dissolving 118 mg of methoxy-succinyl-L-Ala-L-Ala-L-Pro-L-Val-p-nitro-anilide in 1 ml of DMSO (stock solution, for example sigma No. M4765). In view of the application in the analysis, 9 μl of stock solution are then diluted in 1.19 ml of water.
The serial dilutions of the assay compounds are prepared in 100 mM of HEPES buffer containing 500 mM NaCl. The analysis is carried out on colorless 96-well polystyrene microplates (for example, Corning Costar, No. 3695).
10 μl of assay enzyme solution are mixed with 10 μl of the respective diluted compound solution and 10 μl of the substrate solution. After incubation for 15 min, the cleavage of the substrate is read as increase in absorbance at 405 nm.

bovine factor Xa [3] = target: T1, bovine factor Xa; settings: calibration reference; cited from earlier work

| aggrecanase-inhibiting activity (aggrecanase) | Substance | IC50 (μg/ml) for inhibition (aggrecanase) | % conversion (aggrecanase; glycosaminoglycan 0.0001 μg/ml) | % conversion (aggrecanase; glycosaminoglycan 0.001 μg/ml) | % conversion (aggrecanase; glycosaminoglycan 0.01 μg/ml) | % conversion (aggrecanase; glycosaminoglycan 0.1 μg/ml) | % conversion (aggrecanase; glycosaminoglycan 1 μg/ml) | % conversion (aggrecanase; glycosaminoglycan 10 μg/ml) | factor Xa inhibitory activity (bovine factor Xa [1]) | IC50 [2] | factor Xa inhibitory activity of the reference standard (bovine factor Xa [3]) |
| --- | --- | --- | --- | --- | --- | --- | --- | --- | --- | --- | --- |
| – | Carboxyl-Reduced Hyaluronic Acid Sodium Salt [example 1] | no | 100% | 100% | 100% | 100% | 100% | 100% | – | – | – |
| – | Carboxyl-Reduced and Persulfated Hyaluronic Acid Sodium Salt [example 3] | 0.025 µg/mL | 93% | 84.9% | 54.3% | 28% | 27.4% | 21% | 1.75 U/mg | 7.0 µg/mL | – |
| – | Enoxaparin | – | – | – | – | – | – | – | – | – | 100 U/mg |
| no aggrecanase-inhibiting activity | hyaluronic acid [reference compound] | – | – | – | – | – | – | – | – | – | – |
